Where two headings read alike, the source gives them in different places.
Experiments:
[1] = NINCDS Subcutaneous Pentylenetetrazol (Metrazol) Seizure Threshold Test (scMet); format: in vivo, mice; details: for minimal effective dose: sc, read-out: scMet: dosage level that elicited protection
[2] = NINCDS rotorod ataxia test (minimal neurotoxicity); format: in vivo, mice; details: mouse, in vivo, ip; secondary evaluation, at time of peak effect
Procedure: 1. Neurological Activity Tests. The biological testing program is designed to evaluate the following four aspects of drug action: (1) the existence and specificity of anticonvulsant activity; (2) the toxicity, particularly to the central nervous system; and, if the results of (1) and (2) are favorable, (3) the potency and protective index, a comparison between toxic and effective dose and (4) the time course of activity. Compounds were evaluated for anticonvulsant activity in two seizure models, the maximal electroshock seizure (MES) test and the subcutaneous pentylenetetrazol (Metrazol) seizure threshold (scMet) test.
Central nervous system toxicity was evaluated in the rotorod ataxia test. This test is designed to detect minimal neurotoxicity. The animal is placed on a 1-inch diameter knurled plastic rod rotating at 6 rpm. Normal mice can remain indefinitely on a rod rotating at this speed. Neurological deficit is defined as the failure of the animal to remain on the rod for at least 1 minute. This test has a clear end-point, is quantifiable and correlates well with the clinical assessment of minimal toxicity.
Specific anticonvulsant evaluations performed by NINCDS using MES, scMet and Rotorod assays are presented in Tables III & IV for fourteen new compounds as well as several known compounds. Table III centers attention on 2-substituted-3-o-tolyl-4-(3H)-quinazolinones while Table IV includes the findings for various other 2,3-disubstituted-4(3H)-quinazolinones. As described earlier, the MES, scMet and Rotorod tests were performed one-half hour and four hours after administration of each compound. The tables identify the dosage level that elicited a positive result, such as protection against MES and scMet induced seizures, or loss of balance on the rotorod.
In the Secondary Evaluation, median effective doses (ED50) are determined in the MES, scMet and Rotorod assays using the procedures defined in Pharmacology, 95, 99-113 (1949). In addition, each compound's anticonvulsant activity and neurotoxicity over time are determined by measuring the effect of an intraperitoneally administered estimated median effective dose on maximal electroshock seizures and rotorod performance at intervals of 1/2, 1, 2, 3, 4, 6 and 8 hours.
Separate groups of animals are used for each time period. The times of peak toxic and anticonvulsant effect are taken from the resulting graph of percent of animals responding vs. time, and the determinations of median effective doses are performed at those times.

## O=C(Cc1nc2ccccc2c(=O)n1-c1ccccc1Cl)c1ccncc1 [IVd, 2-[2-Oxo-2-(4-pyridyl)ethyl]-3-o-chlorophenyl-4(3H)-quinazolinone]
[1]; Mus musculus, ip, secondary evaluation, at time of peak effect
  ED50: 30.8 mg/kg
[1]; Mus musculus, after 0.5 hr
  minimal effective dose: 30 mg/kg
[1]; Mus musculus, after 4 hr (value in parentheses)
  minimal effective dose: 100 mg/kg
[1]; secondary evaluation
  PI scMet (Protective Index = TD50/ED50): 4.44
  potency against scMet seizures compared with methaqualone: more potent
  scMet protective index compared with Ethosuximide: higher scMet protective index than Ethosuximide
  scMet protective index compared with methaqualone: approximately four-fold higher
[1]; vs Ethotoin, Trimethadione, Paramethadione, Ethosuximide, Methsuximide, Phensuximide, Phenacamide (data of DHEW Publication No. (NIH) 76-1093)
  scMet ED50 compared with commercial petit mal agents: lower ED50 in the scMet screen than the commercially available petit mal agents
[2]
  TD50: 137 mg/kg

Source: patent publication US4183931A, “2-Ketoalkyl-4(3H)-quinazolinones” (Research Corporation, priority 1977, dated 1980)
